Measured values taken from paper PMC10497752, “Heparins are potent inhibitors of ectonucleotide pyrophosphatase/phospho-diesterase-1 (NPP1) – a promising target for the immunotherapy of cancer” (Frontiers in Immunology, 2023).

What was measured:
human NTPDase8 = molecular target: T1, human NTPDase8 (Homo sapiens, UniProt Q5MY95); assay: NTPDase CE-based assay, NTPDase8; assay type: biochemical; conditions: 20 µg/mL (12 µM)
T1 construct: made in house; host or cells: COS-7 cells
T1 sequence (Q5MY95 1-495): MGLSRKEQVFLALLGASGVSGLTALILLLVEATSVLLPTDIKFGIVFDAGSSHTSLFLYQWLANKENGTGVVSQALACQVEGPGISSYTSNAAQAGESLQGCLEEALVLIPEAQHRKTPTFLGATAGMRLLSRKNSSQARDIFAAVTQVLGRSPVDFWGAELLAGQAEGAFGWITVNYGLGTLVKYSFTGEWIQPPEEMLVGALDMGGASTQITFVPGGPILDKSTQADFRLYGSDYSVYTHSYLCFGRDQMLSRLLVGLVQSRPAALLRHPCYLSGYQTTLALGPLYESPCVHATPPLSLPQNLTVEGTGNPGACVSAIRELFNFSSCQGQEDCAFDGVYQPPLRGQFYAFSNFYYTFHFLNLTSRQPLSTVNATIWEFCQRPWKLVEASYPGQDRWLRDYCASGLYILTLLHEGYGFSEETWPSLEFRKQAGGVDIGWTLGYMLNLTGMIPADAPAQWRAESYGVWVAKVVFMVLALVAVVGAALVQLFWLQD
Protocol: For monitoring the activity of human NTPDases (subtypes 1, 2, 3 and 8) in the presence of test compounds, a CE-based assay system was used, according to a published procedure ([11], [25]). The following concentrations of test compounds were investigated in initial screening studies: 63 IU/mL of compounds 1 and 2, 30 µM of compound 6. For selectivity studies, the following concentration were employed: 50 IU/mL of 1, 12 µM of 6, and 48 µM of 7. The amount of enzyme was selected according to previously performed enzymatic titration, and adjusted to ensure a 10–20% conversion rate. Enzymes were obtained by transfection of COS-7 cells using plasmids encoding human NTPDase1 (GenBank accession number U87967) ([26]), NTPDase2 (NM_203468) ([27]), a kind gift of Dr. A.F. Knowles (San Diego, CA), NTPDase3 (AF034840) ([28]), a kind gift of Dr. T.L. Kirley (Cincinnati, OH) and human NTPDase8 (AY430414) ([29]) and purified as previously described ([30], [31]). The reaction buffer consisted of 10 mM HEPES, 2 mM CaCl2, and 1 mM MgCl2, pH 7.4. In the CE assay, the selected substrate concentration (ATP) was 100 µM for all studied human NTPDases (-1, -2, -3 and -8). […] The released products were separated by CE and quantified by their UV-absorption at 260 nm with ADP and AMP as external standards, as previously described ([11]); positive and negative controls were included.

human CD73 = molecular target: T2, human CD73 (Homo sapiens, UniProt P21589); assay: CD73 radioactive assay, [2,8-3H]AMP; assay type: biochemical; conditions: 20 µg/mL (12 µM)
T2 sequence (P21589 27-574): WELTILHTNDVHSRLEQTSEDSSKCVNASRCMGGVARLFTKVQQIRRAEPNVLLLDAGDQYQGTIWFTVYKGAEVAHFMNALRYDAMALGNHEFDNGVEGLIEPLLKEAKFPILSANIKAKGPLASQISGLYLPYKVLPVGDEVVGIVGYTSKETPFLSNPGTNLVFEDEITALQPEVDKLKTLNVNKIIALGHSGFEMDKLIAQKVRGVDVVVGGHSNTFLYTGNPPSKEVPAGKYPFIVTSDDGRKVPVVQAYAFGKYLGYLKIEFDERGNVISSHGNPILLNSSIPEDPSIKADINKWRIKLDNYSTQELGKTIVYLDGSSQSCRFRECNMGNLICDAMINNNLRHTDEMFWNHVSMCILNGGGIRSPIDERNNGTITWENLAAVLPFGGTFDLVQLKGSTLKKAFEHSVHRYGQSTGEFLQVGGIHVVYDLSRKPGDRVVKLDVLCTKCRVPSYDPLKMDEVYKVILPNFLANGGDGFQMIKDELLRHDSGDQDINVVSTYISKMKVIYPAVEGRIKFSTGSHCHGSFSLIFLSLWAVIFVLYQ
Protocol: The assay was performed essentially as previously described ([32]). The enzymatic reaction was performed by mixing 0.36 ng of human CD73 ([33]) with test compound in assay buffer (25 mM Tris, 140 mM sodium chloride, 25 mM sodium dihydrogen phosphate, pH 7.4) and 5 µM of [2,8-^3H]AMP [(specific activity 7.4x10^8 Bq/mmol (20 mCi/mmol)), American Radio-labeled Chemicals, MO, USA, distributed by Hartmann Analytic, Germany]. Compound 7 was used at 800 µg/mL and compound 6 at 20 µg/mL for the selectivity test, while for initial screening compound 5 was tested at a concentration of 55 µM and 6 at 30 µM, and 1 and 2 were tested at 50 IU/mL ( Supplementary Figure 1 ). The enzymatic reaction was performed for 25 min at 37°C in a shaking water bath. Then, 500 µL of cold precipitation buffer (100 mM lanthanum chloride, 100 mM sodium acetate, pH 4.00) was added to stop the reaction and to facilitate precipitation of free phosphate and unconverted [2,8-^3H]-AMP. […] After washing each reaction vial three times with 400 µL of cold (4°C) demineralized water, 5 mL of the scintillation cocktail (ULTIMA Gold XR, PerkinElmer, MA, USA) was added and the radioactivity was measured by scintillation counting (TRICARB 2900 TR, Packard/PerkinElmer; counting efficacy: 49-52%). […]

NTPDase8 inhibition, selectivity study (human NTPDase8): no effect | CD73 inhibition, selectivity study (human CD73): no effect
SMILES: CO[C@H]1O[C@H](COS(=O)(=O)O)[C@@H](O[C@@H]2O[C@@H](C(=O)O)[C@@H](O[C@H]3O[C@H](COS(=O)(=O)O)[C@@H](O[C@@H]4O[C@H](C(=O)O)[C@@H](O[C@H]5O[C@H](COS(=O)(=O)O)[C@@H](O)[C@H](O)[C@H]5NS(=O)(=O)O)[C@H](O)[C@H]4O)[C@H](OS(=O)(=O)O)[C@H]3NS(=O)(=O)O)[C@H](O)[C@H]2OS(=O)(=O)O)[C@H](O)[C@H]1NS(=O)(=O)O [Compound 6, Fondaparinux]
